From US20240390464A1, “Treatment of Adults With Overweight or Obesity With or Without Weight-Related Comorbidities” (Carmot Therapeutics Inc., priority 2023, published 2024)
Read-outs that look alike come from different tables or passages of the source. Numbered stars: 1 amine (or outer) side, 2 acyl side, 3 side chain; on linkers, the order of the positions; unused ones are H or OH. Square brackets hold non-standard residues; d marks the D form. Side chains are listed from the residue outwards. Peptide text beside a SMILES is read from it. * marks the point of attachment. Isobutyryl(2-(3-CN-5-F-Ph)) = CC(C)(C(=O)*)c1cc(F)cc(C#N)c1; C20 diacid = O=C(O)CCCCCCCCCCCCCCCCCCC(=O)*; γGlu = O=C(O)[C@H](CCC(=O)[*:2])N[*:1]; AEEA = NCCOCCOCC(=O)O; Aib = CC(C)(N)C(=O)O; βAla = NCCC(=O)O

Assay: Phase 1 SAD Cohorts 1-5: pharmacokinetics
Conditions: human, in vivo; for Vd/F: read-out: Vz/F
Experimental: The secondary objectives are: • To evaluate the pharmacokinetics of single-ascending doses of CT-388 in otherwise healthy overweight and obese adult participants; and • To evaluate the pharmacodynamic (PD) effect of a single dose of CT-388 on body weight and glucose homeostasis in both the fasted state and in the setting of a mixed meal tolerance test (MMTT) challenge in otherwise healthy overweight and obese adult participants.
• Cohort 1: One dose containing 0.5 mg of CT-388 or matched placebo administered subcutaneously in the abdomen • Cohort 2: One dose containing 2.0 mg of CT-388 or matched placebo administered subcutaneously in the abdomen • Cohort 3: One dose containing 5.0 mg of CT-388 or matched placebo administered subcutaneously in the abdomen • Cohort 4: One dose containing 7.5 mg of CT-388 or matched placebo administered subcutaneously in the abdomen • Cohort 5: One dose containing 6.0 mg of CT-388 or matched placebo administered subcutaneously in the abdomen
Time-concentration profiles following a single dose SC administration of CT-388 to participants in Cohort 1 (0.5 mg), Cohort 2 (2 mg), Cohort 3 (5 mg), Cohort 4 (7.5 mg) and Cohort 5 (6 mg) are shown in Table 8 below.

[1] = Cohort 1, single SC dose 0.5 mg, mean ± standard deviation
[2] = Cohort 2, single SC dose 2 mg, mean ± standard deviation
[3] = Cohort 3, single SC dose 5 mg, mean ± standard deviation
[4] = Cohort 4, single SC dose 7.5 mg, mean ± standard deviation
[5] = Cohort 5, single SC dose 6 mg, mean ± standard deviation

`CC[C@H](C)[C@H](NC(=O)[C@H](CC(C)C)NC(=O)[C@H](Cc1c[nH]c2ccccc12)NC(=O)[C@H](CCC(N)=O)NC(=O)[C@@H](NC(=O)[C@H](Cc1ccccc1)NC(=O)[C@H](C)NC(=O)[C@H](CCCCNC(=O)COCCOCCNC(=O)COCCOCCNC(=O)CC[C@H](NC(=O)CCCCCCCCCCCCCCCCCCC(=O)O)C(=O)O)NC(=O)[C@H](CCC(N)=O)NC(=O)[C@H](C)NC(=O)[C@@H](NC(=O)[C@H](CCCCN)NC(=O)[C@H](CC(=O)O)NC(=O)[C@H](CC(C)C)NC(=O)C(C)(C)NC(=O)[C@@H](NC(=O)[C@H](CO)NC(=O)[C@H](Cc1ccc(O)cc1)NC(=O)[C@H](CC(=O)O)NC(=O)[C@H](CO)NC(=O)[C@@H](NC(=O)[C@H](Cc1ccccc1)NC(=O)[C@@H](NC(=O)CNC(=O)[C@H](CCC(=O)O)NC(=O)CCNC(=O)C(C)(C)c1cc(F)cc(C#N)c1)[C@@H](C)O)[C@@H](C)O)[C@@H](C)CC)[C@@H](C)CC)C(C)C)C(=O)N[C@@H](C)C(=O)NCC(=O)NCC(=O)N1CCC[C@H]1C(=O)N[C@@H](CO)C(=O)N[C@@H](CO)C(=O)NCC(=O)N[C@@H](C)C(=O)N1CCC[C@H]1C(=O)N1CCC[C@H]1C(=O)N1CCC[C@H]1C(=O)N[C@@H](CO)C(N)=O` [CT-388] ({Isobutyryl(2-(3-CN-5-F-Ph))-βAla}-EGTFTSDYSI[Aib]LDKIAQK([AEEA-AEEA-γGlu-C20 diacid])AFVQWLIAGGPSSGAPPPS-NH2) showed an AUC(0-inf) [1] of 12900 ± 1090 ng·h/mL, a CL/F [1] of 0.65 mL/min and a Cmax [1] of 52.4 ± 10 ng/mL. It also gave an MRT last [1] of 128 ± 8.2 h, a Vd/F [1] of 5.8 ± 0.7 L and a half-life (Cohort 1, single SC dose 0.5 mg, range of minimum to maximum, read-out: t1/2 range) of 91.9 to 171 h. It also gave an AUC(0-inf) [2] of 47400 ± 10600 ng·h/mL, a CL/F [2] of 0.733 mL/min and a Cmax [2] of 216 ± 51.4 ng/mL. For the same molecule, the MRT last [2] was 122 ± 5.6 h, the Vd/F [2] was 7.7 ± 1.8 L and the half-life (Cohort 2, single SC dose 2 mg, range of minimum to maximum, read-out: t1/2 range) was 108 to 142 h. For the same molecule, the CL/F (Cohort 3, single SC dose 5 mg, mean) was 0.64 mL/min, the AUC(0-inf) [3] was 140000 ± 41700 ng·h/mL and the Cmax [3] was 831 ± 263 ng/mL. It also gave an MRT last [3] of 114 ± 2.3 h, a Vd/F [3] of 6.8 ± 2.1 L and a half-life (Cohort 3, single SC dose 5 mg, range of minimum to maximum, read-out: t1/2 range) of 108 to 146 h. The CL/F (Cohort 4, single SC dose 7.5 mg, mean) was 0.547 mL/min, the AUC(0-inf) [4] was 235000 ± 39000 ng·h/mL and the Cmax [4] was 1160 ± 110 ng/mL. For the same molecule, the MRT last [4] was 119 ± 5.3 h, the Vd/F [4] was 6.6 ± 1.3 L and the half-life (Cohort 4, single SC dose 7.5 mg, range of minimum to maximum, read-out: t1/2 range) was 117 to 151 h. For the same molecule, the AUC(0-inf) [5] was 100000 ± 15000 ng·h/mL, the CL/F [5] was 0.99 mL/min and the Cmax [5] was 552 ± 80.1 ng/mL. For the same molecule, the MRT last [5] was 122 ± 9.6 h, the Vd/F [5] was 11 ± 1.2 L and the half-life (Cohort 5, single SC dose 6 mg, range of minimum to maximum, read-out: t1/2 range) was 101 to 141 h. For the same molecule, the Tmax (SAD Cohorts 1-5, single SC dose, all except two individual cases) was over 24 h and the half-life (SAD Cohorts 1-5, single SC dose, read-out: t1/2 (median) (converted)) was about 120 h.
